Data taken from patent publication US9861625B2, “Methods and compositions for treating cancer through inhibition of PI3K” (Duke University, priority 2014, dated 2018).

Tests used:
Format in all cases: cell-based
SUDHL7 = assay: MTT cell viability assay; details: SUDHL7, GCB DLBCL, RPMI 15% FBS
From the text: (§1) A total of 60 cell lines representative of different cancer types were obtained from the ATCC and grown and maintained in accordance with the provided guidelines. The cell lines represented the following distinct histologies: mantle cell lymphoma (5 lines: JVM13, Rec1, Mino, JVM2, Jeko); germinal center B-cell derived (“GCB”) DLBCL (19 lines: Farage, BJAB, Ly1, Ly2, Ly7, Ly8, Ly19, HBL2, HT, Karpas422, Pfeiffer, RCK8, RL, Sci-1, Ski, SUDHL4, SUDHL7, Toledo, WSU-NHL); primary mediastinal B-cell lymphoma (“PMBL”) (3 lines: K1106, MEDB1, U2940); Burkitt lymphoma (11 lines: Daudi, CA46, EB1, EB2, EB3, Jijoye, Raji, Ramos, Namwala, BL2, BL41); Hodgkin lymphoma (3 lines: RMPI6666, L1236, L428); activated B-cell derived (“ABC”) DLBCL (6 lines: Ly3, HBL1, TMD8, Ly10, Riva, U2932); multiple myeloma (6 lines: U266, SKMM1, RPMI8226, KMS12, IM9, H929); acute myelogenous leukemia (“AML”) (2 lines: U937, KG1); acute lymphoblastic leukemia (“ALL”) (2 lines: Reh, SR); and T-cell lymphoma (3 lines: Molt4, RPMI8402, Jurkat). The cell lines were tested within six months after resuscitation.
(§2) The 3-(4,5-dimethylthiazol-2-yl)-2,5-diphenyltetrazolium bromide (MTT) cell viability assay was used to determine cell viability in response to drug treatment. Five replicates per concentration tested were carried out in serial dilutions with a total of ten concentrations with a 50% reduction in drug concentration per dilution for each plate. A total of 15 μl of MTT reagent was added to each drug-treated well and incubated for three hours in 37° C. Detergent was added to each drug-treated well and incubated overnight at room temperature without exposure to light. Absorbance was measured at 570 nm using a plate reader from Tecan Group. The IC50 concentration was determined using the publicly available ED50 plus v1.0 software program.

Rec1 = assay: MTT cell viability assay; details: Homo sapiens; Rec1, MantleCellLymphoma, RPMI 10% FBS
From the text: as §1, §2

HT = assay: MTT cell viability assay; details: Homo sapiens, GCB DLBCL, RPMI 10% FBS
From the text: as §1, §2

LY1 = assay: MTT cell viability assay; details: LY1, GCB DLBCL, OCI
From the text: as §1, §2

SKMM1 = assay: MTT cell viability assay; details: SKMM1, Multiple Myeloma, RPMI 10% FBS
From the text: as §1, §2

RPMI8402 = assay: MTT cell viability assay; details: Homo sapiens, RPMI 8402; RPMI8402, T-cell, RPMI 10% FBS
From the text: as §1, §2

U937 = assay: MTT cell viability assay; details: Homo sapiens, U-937; U937, AML, RPMI 10% FBS
From the text: as §1, §2

[1] = tested on: PI3K pathway (p-AKT, p-S6, p-GSKalpha, p-GSKbeta) in BJAB DLBCL cells; assay: Confirmation of pathway downregulation (Western blot) in BJAB; details: for inhibition of the PI3K pathway: BJAB, time-course and dose-escalation experiments
Description: RIPA lysis buffer (1×PBS, 1% NP-40, 0.5% sodium deoxycholate, 0.1% SDS, 10 mmol/L sodium orthovanadate) was added to 750,000 cells and incubate on ice for 30 minutes. The mixture was spun down, and the supernatant was transferred to a new tube as the whole-cell extract. A total of 20 μg cell lysate was separated on a 4% to 18% Tris-Bis NuPAGE gel (Invitrogen) and transferred using the iBlot transfer device (Invitrogen) program 3 for seven minutes. The blots were probed with a 1:100 p-AKT, 1:1000 total AKT, 1:100p-GSK3alpha, 1:100 p-GSK3beta, or 1:100 p-s6 (Cell Signaling), or 1:5000 goat anti-β-actin (SC-47778, Santa Cruz Biotech) for one hour at room temperature. The antibodies were detected by the use of 1:10,000 goat anti-mouse-HRP conjugated antibodies (Santa Cruz Biotech). Western Blotting Luminol Reagent (Santa Cruz Biotech) was used to visualize the bands corresponding to each antibody.
One million BJAB DLBCL cells were treated with increasing doses of BEZ235, and, after six hours, the cells were analyzed for a dose-dependent effect at 15, 30, 60, 125, 250, and 500 nmol/L concentrations. Cell count and viability were measured for each concentration. […] Western blot analyses were performed to assess phosphorylation of AKT, GSK3alpha, GSK3beta, and S6.
Inhibition of the PI3K pathway by the three PI3K inhibitors was confirmed through separate time-course and dose-escalation experiments, as well as by measuring the expression of key downstream members of the pathway. The drugs were tested in the BJAB DLBCL for their effects on p-AKT, p-S6, p-GSKalpha, and p-GSKbeta. […] An associated decrease in cell viability was ruled out by quantifying the proportion of viable cells at each time point using trypan blue staining.

[2] = tested on: Sixty cell lines representing blood cancer histologies; assay: Sensitivity to PI3K inhibition in sixty cancer cell lines (MTT); details: BKM120 and BEZ235 in all 60 cell lines; BGT226 in 31 cell lines; read-out: observed IC50s, range over the cell lines
From the text: as §1
as §2, with “program. […]” for “program.”

## Cn1c(=O)n(-c2ccc(C(C)(C)C#N)cc2)c2c3cc(-c4cnc5ccccc5c4)ccc3ncc21 [BEZ235]
SUDHL7
  IC50: 22.2 nM
Rec1
  IC50: 82.3 nM
HT
  IC50: 2610 nM
LY1
  IC50: 16.4 nM
SKMM1
  IC50: 48.4 nM
RPMI8402
  IC50: 220 nM
U937
  IC50: 15 nM
[1]; 30 nmol/L BEZ235, three and six hours after treatment, total AKT and actin unchanged
  down regulation of PI3K targets, time course: time-dependent down regulation
[1]
  inhibition of the PI3K pathway: directly inhibit the PI3K pathway
[2]
  IC50: 10 to 9000 nM

## Nc1cc(C(F)(F)F)c(-c2cc(N3CCOCC3)nc(N3CCOCC3)n2)cn1 [BKM120]
SUDHL7
  IC50: 233 nM
Rec1
  IC50: 776 nM
HT
  IC50: 435 nM
LY1
  IC50: 382 nM
SKMM1
  IC50: 826 nM
RPMI8402
  IC50: 1220 nM
U937
  IC50: 895 nM
[1]
  inhibition of the PI3K pathway: directly inhibit the PI3K pathway
[2]
  IC50: 200 to 7800 nM

## COc1ccc(-c2ccc3ncc4c(c3c2)n(-c2ccc(N3CCNCC3)c(C(F)(F)F)c2)c(=O)n4C)cn1 [BGT226]
Rec1
  IC50: 35.9 nM
U937
  IC50: 11.2 nM
[1]
  inhibition of the PI3K pathway: directly inhibit the PI3K pathway
[2]
  IC50: 3 to 200 nM
